Assay results from ChEMBL document CHEMBL5465560, “Selectivity Literature for EUbOPEN Chemogenomic Library” (2024).

Columns and labels:
[1] = target: T1, Ephrin type-B receptor 3 (Homo sapiens) (UniProt P54753); assay: Selectivity interaction (Kinase panel (DSF assay)) EUB0001559a EPHB3
T1 sequence (whole entry): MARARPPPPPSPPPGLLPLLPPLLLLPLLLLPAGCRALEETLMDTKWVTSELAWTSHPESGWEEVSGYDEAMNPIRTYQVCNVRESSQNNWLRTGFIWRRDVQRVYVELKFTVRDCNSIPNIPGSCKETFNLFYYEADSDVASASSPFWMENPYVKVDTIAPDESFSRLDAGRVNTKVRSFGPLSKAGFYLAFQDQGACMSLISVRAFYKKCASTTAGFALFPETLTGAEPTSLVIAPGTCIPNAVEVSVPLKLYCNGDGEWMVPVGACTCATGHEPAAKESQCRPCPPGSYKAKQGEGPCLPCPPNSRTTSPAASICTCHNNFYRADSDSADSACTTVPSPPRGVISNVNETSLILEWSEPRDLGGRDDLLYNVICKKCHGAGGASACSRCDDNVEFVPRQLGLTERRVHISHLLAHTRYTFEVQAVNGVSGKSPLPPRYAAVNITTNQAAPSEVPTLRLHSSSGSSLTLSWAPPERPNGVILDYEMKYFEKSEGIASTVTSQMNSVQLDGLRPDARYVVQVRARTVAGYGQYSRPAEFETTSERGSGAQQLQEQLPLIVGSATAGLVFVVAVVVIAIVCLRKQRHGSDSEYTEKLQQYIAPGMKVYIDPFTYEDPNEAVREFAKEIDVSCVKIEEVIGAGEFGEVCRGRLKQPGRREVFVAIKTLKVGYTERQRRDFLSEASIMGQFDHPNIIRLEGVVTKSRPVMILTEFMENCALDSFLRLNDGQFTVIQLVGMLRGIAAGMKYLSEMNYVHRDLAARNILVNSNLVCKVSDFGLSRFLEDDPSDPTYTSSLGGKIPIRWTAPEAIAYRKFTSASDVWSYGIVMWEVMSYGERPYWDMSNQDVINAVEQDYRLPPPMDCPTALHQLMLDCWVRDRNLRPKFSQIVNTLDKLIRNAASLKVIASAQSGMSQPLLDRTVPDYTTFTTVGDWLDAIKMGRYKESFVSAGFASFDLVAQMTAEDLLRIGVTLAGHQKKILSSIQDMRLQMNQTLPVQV

[2] = target: T2, Mitogen-activated protein kinase kinase kinase 15 (Homo sapiens) (UniProt Q6ZN16); assay: Selectivity interaction (KinomeScan (DiscoverX)) EUB0000666a MAP3K15; details: at 10 µM
T2 sequence (whole entry): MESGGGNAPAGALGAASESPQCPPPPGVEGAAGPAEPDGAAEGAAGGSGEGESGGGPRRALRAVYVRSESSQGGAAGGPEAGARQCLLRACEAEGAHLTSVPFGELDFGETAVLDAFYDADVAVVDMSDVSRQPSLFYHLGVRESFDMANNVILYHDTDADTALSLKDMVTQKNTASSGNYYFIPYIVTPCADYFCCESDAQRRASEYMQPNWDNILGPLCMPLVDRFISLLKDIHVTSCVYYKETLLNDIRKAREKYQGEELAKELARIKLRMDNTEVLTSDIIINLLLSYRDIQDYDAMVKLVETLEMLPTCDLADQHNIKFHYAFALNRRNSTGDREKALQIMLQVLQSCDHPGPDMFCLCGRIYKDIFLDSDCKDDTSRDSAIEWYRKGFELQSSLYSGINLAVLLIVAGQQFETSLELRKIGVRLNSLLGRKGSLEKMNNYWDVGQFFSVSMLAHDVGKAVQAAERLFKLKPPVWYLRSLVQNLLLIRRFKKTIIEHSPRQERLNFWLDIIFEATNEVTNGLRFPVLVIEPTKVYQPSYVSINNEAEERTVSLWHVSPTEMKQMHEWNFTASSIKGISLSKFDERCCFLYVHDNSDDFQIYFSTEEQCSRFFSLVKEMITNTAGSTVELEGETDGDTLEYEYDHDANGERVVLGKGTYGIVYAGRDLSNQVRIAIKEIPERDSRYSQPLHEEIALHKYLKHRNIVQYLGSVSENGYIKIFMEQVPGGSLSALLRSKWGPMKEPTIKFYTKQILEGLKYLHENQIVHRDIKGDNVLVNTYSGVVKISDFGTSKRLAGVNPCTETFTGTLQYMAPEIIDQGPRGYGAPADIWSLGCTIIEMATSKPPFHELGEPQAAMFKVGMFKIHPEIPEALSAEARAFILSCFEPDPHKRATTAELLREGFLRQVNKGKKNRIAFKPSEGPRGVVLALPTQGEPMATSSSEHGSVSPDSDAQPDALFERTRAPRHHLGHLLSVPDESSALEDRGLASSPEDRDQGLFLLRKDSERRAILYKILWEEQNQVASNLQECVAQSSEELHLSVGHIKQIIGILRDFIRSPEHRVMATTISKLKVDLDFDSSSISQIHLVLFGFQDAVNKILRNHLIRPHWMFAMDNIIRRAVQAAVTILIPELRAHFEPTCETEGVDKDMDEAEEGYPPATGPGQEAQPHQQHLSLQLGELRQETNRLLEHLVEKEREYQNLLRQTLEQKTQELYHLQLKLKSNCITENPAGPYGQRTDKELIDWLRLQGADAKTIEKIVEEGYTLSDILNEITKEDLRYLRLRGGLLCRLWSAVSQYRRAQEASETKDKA

[3] = target: Tyrosine-protein kinase SYK (Homo sapiens, UniProt P43405); assay: Selectivity interaction (ActivX KiNativ screen (kinase selectivity in THP-1 cell lysates)) EUB0000639a SYK; type: subcellular; details: lysate, at 0.01 µM

Compound `CN(C(=O)c1cnn2cccnc12)c1cc2c(cc1N1CCOCC1)C(=O)N(C[C@@H](F)C(C)(C)O)C2` has a dTM [1] of 0 K.
`O=C(NOC[C@H](O)CO)c1ccc(F)c(F)c1Nc1ccc(I)cc1F` was tested, and the % of control [2] was 100%.
`CC[C@@H]1[C@H](F)C(=O)N[C@@H]1COc1nccc2cc(C(N)=O)c(OC)cc12` [ZIMLOVISERTIB] showed a % of inhibition [3] of 7.1%.
